Laboratory results as given in BindingDB's records for doi:10.1021/jm200691d (University of Bologna, 2011).

Legend:
Acetylcholinesterase [1] = biological target: T1, Acetylcholinesterase (Homo sapiens, UniProt P22303); experiment: Inhibition of human recombinant AChE-induced amyloid beta (1-40) aggregation assessed as fibril formation after 24 hrs by thioflavin T-based fluorometric assay
Acetylcholinesterase [2] = biological target: T1, Acetylcholinesterase; experiment: Inhibition of human recombinant AChE using acetylthiocholine iodide as substrate after 20 mins preincubation by Ellman method

T1 sequence (P22303 whole entry): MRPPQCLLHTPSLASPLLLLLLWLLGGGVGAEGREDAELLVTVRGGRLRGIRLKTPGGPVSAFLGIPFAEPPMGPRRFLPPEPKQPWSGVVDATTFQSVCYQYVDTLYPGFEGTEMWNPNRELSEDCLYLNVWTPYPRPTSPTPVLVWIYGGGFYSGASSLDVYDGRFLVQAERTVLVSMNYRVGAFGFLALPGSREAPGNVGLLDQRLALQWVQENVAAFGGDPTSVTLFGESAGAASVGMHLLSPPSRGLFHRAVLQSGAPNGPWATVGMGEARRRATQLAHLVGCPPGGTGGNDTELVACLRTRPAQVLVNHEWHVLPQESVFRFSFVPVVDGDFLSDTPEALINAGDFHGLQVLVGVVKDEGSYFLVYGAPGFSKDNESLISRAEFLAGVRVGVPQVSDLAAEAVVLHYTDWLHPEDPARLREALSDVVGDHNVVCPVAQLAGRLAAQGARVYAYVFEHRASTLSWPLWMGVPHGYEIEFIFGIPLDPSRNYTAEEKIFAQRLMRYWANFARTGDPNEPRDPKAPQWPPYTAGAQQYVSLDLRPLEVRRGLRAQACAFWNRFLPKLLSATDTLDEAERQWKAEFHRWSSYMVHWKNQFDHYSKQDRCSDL

CCN(CCCCCC=Nc1cc(O)c2ccccc2c1O)Cc1ccccc1OC
IC50 (Acetylcholinesterase [1]): 45 µM
IC50 (Acetylcholinesterase [2]): 45 µM
